Laboratory results reported in ChEMBL document CHEMBL1140887, “Synthesis of novel 1,4-benzoxazin-3-one derivatives as inhibitors against tyrosine kinases” (Bioorg Med Chem, 2009).

Columns and labels:
[1] = molecular target: Tyrosine-protein kinase ABL1 (Homo sapiens, UniProt P00519); assay: Inhibition of ABL expressed in baculovirus system by ELISA
[2] = molecular target: T1, Vascular endothelial growth factor receptor 2 (Homo sapiens, UniProt P35968); assay: Inhibition of KDR expressed in baculovirus system at 4 ug/ml by ELISA
[3] = molecular target: T1, Vascular endothelial growth factor receptor 2; assay: Inhibition of KDR expressed in baculovirus system by ELISA

T1 sequence (P35968 whole entry): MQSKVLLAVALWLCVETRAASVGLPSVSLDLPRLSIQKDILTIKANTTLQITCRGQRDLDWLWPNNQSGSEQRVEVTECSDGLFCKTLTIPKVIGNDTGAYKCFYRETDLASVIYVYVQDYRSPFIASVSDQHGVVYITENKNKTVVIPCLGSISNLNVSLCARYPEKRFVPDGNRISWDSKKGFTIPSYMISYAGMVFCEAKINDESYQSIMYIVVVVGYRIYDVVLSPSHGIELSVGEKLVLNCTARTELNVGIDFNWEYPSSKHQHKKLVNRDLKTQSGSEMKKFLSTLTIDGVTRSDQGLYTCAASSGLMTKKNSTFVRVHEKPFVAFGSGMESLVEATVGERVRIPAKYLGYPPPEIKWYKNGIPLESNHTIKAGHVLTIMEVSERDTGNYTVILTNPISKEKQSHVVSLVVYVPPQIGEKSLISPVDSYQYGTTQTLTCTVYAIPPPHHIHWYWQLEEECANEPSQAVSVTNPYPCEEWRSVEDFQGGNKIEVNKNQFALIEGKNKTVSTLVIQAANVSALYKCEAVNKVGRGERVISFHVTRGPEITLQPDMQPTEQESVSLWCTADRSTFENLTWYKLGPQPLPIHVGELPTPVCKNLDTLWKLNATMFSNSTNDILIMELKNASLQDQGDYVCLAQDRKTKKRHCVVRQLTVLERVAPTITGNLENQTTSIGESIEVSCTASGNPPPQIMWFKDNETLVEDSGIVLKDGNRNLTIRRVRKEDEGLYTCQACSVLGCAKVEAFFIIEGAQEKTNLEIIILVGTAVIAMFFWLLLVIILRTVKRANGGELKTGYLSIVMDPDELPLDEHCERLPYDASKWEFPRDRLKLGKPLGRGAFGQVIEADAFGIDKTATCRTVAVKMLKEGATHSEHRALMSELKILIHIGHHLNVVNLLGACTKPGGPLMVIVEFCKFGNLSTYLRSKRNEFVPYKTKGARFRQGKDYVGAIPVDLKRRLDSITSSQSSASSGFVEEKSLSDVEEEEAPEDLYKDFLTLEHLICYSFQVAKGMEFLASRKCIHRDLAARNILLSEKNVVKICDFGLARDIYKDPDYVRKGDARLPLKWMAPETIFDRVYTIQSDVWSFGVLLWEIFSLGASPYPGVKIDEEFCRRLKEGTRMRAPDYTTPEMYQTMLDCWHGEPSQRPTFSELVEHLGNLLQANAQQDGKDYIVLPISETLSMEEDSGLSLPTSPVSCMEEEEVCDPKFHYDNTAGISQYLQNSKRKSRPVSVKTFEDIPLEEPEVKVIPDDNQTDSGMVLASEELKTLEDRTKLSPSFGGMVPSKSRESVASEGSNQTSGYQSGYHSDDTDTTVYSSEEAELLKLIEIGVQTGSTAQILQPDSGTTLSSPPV
Sequence of Tyrosine-protein kinase ABL1 (P00519 whole entry): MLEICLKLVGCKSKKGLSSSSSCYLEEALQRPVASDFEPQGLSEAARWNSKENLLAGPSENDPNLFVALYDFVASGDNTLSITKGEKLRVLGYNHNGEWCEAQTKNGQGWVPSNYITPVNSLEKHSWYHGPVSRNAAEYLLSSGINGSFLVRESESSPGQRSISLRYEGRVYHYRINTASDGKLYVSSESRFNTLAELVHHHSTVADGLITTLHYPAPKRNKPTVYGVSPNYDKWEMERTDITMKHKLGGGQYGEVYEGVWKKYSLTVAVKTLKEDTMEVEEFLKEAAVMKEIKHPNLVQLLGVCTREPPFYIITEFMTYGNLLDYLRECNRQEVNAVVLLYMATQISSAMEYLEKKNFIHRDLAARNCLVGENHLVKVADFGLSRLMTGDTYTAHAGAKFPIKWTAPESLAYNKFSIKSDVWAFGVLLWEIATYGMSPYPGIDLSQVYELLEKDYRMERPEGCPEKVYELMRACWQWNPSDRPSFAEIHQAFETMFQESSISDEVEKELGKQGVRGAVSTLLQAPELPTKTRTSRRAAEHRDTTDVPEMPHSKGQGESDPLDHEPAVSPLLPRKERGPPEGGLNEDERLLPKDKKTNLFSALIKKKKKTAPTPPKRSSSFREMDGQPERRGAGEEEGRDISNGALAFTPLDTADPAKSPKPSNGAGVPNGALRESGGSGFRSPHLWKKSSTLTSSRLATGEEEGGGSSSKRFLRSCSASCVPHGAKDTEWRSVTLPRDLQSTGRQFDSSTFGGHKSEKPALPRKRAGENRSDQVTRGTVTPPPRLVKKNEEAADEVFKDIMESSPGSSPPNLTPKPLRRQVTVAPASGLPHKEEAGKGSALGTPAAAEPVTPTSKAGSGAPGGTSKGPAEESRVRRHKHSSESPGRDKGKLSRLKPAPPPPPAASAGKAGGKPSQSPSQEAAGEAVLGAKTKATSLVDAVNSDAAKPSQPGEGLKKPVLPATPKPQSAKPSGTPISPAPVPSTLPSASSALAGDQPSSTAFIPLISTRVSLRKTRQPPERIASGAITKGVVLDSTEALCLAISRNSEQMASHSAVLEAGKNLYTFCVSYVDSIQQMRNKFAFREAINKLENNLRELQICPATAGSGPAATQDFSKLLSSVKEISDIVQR

Structure (SMILES)	IC50 [1]	inhibition [2]	IC50 [3]
O=C(/C=C/c1ccc(/C=C2\Oc3ccccc3NC2=O)s1)Nc1ccc(N2CCOCC2)cc1	290 nM		
CN1C(=O)/C(=C/c2ccc(/C=C/C(=O)N3CCCC3)s2)Oc2ccccc21		79.2%	
O=C1Nc2ccccc2O/C1=C\c1ccc(/C=C/C(=O)N2CCN(CCO)CC2)o1		76.7%	
O=C1Nc2ccccc2O/C1=C\c1ccc(/C=C/C(=O)N2CCCC2)o1	> 1140 nM		
O=C(/C=C/c1cccc(/C=C2\Oc3ccccc3NC2=O)c1)NCc1ccccn1	> 1010 nM		
CN(C)CCNC(=O)/C=C/c1cccc(/C=C2\Oc3ccccc3NC2=O)c1		70.8%	
CN1C(=O)/C(=C/c2ccc(/C=C/C(=O)NCc3cccnc3)s2)Oc2ccccc21	1900 nM	76.7%	1480 nM
CN1C(=O)/C(=C/c2ccc(/C=C/C(=O)N3CCN(CCO)CC3)s2)Oc2ccccc21		88.3%	
CN(C)CCNC(=O)/C=C/c1ccc(/C=C2\Oc3ccccc3N(C)C2=O)s1	820 nM	83.9%	
CN1C(=O)/C(=C/c2ccc(/C=C/C(=O)NCc3ccncc3)s2)Oc2ccccc21	1760 nM	77.1%	
O=C(/C=C/c1ccc(/C=C2\Oc3ccccc3NC2=O)s1)NCc1ccccn1	> 991 nM		
CN(C)CCNC(=O)/C=C/c1csc(/C=C2\Oc3ccccc3NC2=O)c1	> 1040 nM		
CN1C(=O)/C(=C/c2cccc(/C=C/C(=O)Nc3ccc(N4CCOCC4)cc3)c2)Oc2ccccc21		79.9%	
O=C1Nc2ccccc2O/C1=C\c1cc(/C=C/C(=O)N2CCCC2)cs1	> 1090 nM		
